# Measurements as given in patent US6265551A, “Form of dipeptidylpeptidase IV (CD26) found in human serum, antibodies thereto, and uses thereof” (Dana-Farber Cancer Institute, Inc., priority 1996, dated 2001).
# Where a SMILES comes first, the peptide text is derived from it. The star is where a group is joined. pNA = O=[N+]([O-])c1ccc(N*)cc1
# Legend:
# [1] = target: serum DPPIV (soluble 175 kDa form of DPPIV/CD26, DPPT-L) purified from normal human serum; assay: DPPIV enzyme activity: Gly-Pro-pNA hydrolysis, Michaelis-Menten kinetics and inhibition; type: biochemical
# Description: The DPPIV enzyme activities of the rsCD26 and serum DPPIV were analyzed by Michaelis-Menten kinetics by assessing kinetics of hydrolysis of substrate at different concentrations. […] To further exclude the possibility that we had purified irrelevant aminopeptidases which, working in concert or by sequential hydrolysis, could release the pNA chromophore from substrate, we tested a number of substrates which could be hydrolyzed by non-DPPIV aminopeptidases. One candidate for sequential hydrolysis is aminopeptidase M (3.4.11.2), but no hydrolysis of Ala-pNA, Arg-pNA or Leu-pNA was observed and activity by aminopolypeptidase (3.4.11.14) may be similarly excluded. The substrate succinyl-Gly-Pro-pNA was also not hydrolyzed. The only substrate apart from the dipeptide chromatogen Gly-Pro-pNA which could be hydrolyzed was Val-Ala-pNA, which was cleaved by both the serum DPPIV and rsCD26 (relative to rate of hydrolysis of Gly-Pro-pNA, hydrolysis of Val-Ala-pNA was 0.098 and 0.079, for rsCD26 and serum DPPIV, respectively). Although DPPIV primarily hydrolyses dipeptides with a proline in the penultimate position, it is well documented that alanine in the penultimate position may also render a dipeptide sequence susceptible to cleavage by DPPIV (8). […]
# DPPIV activity: The primary substrate used for determining DPPIV activity in all assays was Gly-Pro-p-nitroanilide (Gly-Pro-pNA; Sigma), which is hydrolyzed by DPPIV to release pNA absorbing strongly at 405 nm. […] Inhibition of the hydrolysis of Gly-Pro-pNA was determined in the presence of the specific DPPIV inhibitor Diprotin A (Bachem, King of Prussia, Pa.). […] The pH optimum was determined substituting phosphate buffer (100 mM, pH4.5-pH9) in place of standard incubation buffer.
# Serum DPPIV: Serum DPPIV was prepared by isolating from 100 ml of pooled normal human male AB serum the fraction of protein precipitated by 50-70% saturated ammonium sulfate. […] The DPPIV activity was eluted by a 0-0.5M NaCl gradient in equilibration buffer and all DPPIV activity was found in the 10 mM-50 mM NaCl eluate (determined by conductance). […]
# [2] = target: recombinant soluble CD26 (rsCD26), full extracellular domain of human T cell membrane CD26/DPPIV, 105 kDa form, from transfected CHO cells (Homo sapiens, UniProt P27487); assay: as above; conditions: U = enzyme cleaving 1 mmol Gly-Pro-pNA/min at pH7.6 and 20° C.
# recombinant soluble CD26 (rsCD26), full extracellular domain of human T cell membrane CD26/DPPIV, 105 kDa form, from transfected CHO cells, sequence (P27487 29-766 limits assumed): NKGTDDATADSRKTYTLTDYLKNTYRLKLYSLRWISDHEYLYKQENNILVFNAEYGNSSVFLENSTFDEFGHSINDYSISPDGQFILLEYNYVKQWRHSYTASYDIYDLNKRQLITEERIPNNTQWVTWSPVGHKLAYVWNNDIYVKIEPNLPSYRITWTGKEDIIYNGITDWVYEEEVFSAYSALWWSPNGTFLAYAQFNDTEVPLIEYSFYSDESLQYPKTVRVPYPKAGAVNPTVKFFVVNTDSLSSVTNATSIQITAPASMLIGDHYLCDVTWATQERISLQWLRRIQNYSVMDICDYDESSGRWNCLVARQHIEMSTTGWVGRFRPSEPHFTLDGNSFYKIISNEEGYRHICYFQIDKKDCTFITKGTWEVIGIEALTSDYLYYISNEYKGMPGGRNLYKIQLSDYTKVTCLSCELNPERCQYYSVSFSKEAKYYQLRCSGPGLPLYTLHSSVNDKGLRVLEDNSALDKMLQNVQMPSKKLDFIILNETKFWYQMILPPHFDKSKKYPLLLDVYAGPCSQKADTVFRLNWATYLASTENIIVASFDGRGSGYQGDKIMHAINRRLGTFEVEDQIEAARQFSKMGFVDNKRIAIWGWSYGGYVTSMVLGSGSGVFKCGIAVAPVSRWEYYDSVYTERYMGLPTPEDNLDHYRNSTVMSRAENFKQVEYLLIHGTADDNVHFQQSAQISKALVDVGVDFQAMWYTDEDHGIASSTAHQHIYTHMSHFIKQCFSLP
# Description: DPPIV activity: The primary substrate used for determining DPPIV activity in all assays was Gly-Pro-p-nitroanilide (Gly-Pro-pNA; Sigma), which is hydrolyzed by DPPIV to release pNA absorbing strongly at 405 nm. Kinetic assays were performed using varying amounts of substrate in order to obtain estimates of the Km and Vmax using standard Michaelis-Menten kinetics. For screening assays of DPPIV activity, 150 ml of substrate was used at 1 mg/ml (2 mM final concentration) in phosphate buffer (pH7.6, 100 mM) in 96 well flat-bottomed microtiter plates together with 10 ml of appropriately diluted sample. For samples obtained after elution from the s-Sepharose column, the pH was raised to pH7.6 by addition of 25 μl of 1M Tris-HCl, pH7.6 to the reaction mixture. One unit (U) of enzyme activity was defined as the amount of enzyme that cleaved 1 mmol of Gly-Pro-pNA/min at pH7.6 and 20° C. […] The pH optimum was determined substituting phosphate buffer (100 mM, pH4.5-pH9) in place of standard incubation buffer.
Compound,"IC50 ([1]; read-out: IC50 (Diprotin A), inhibition of the hydrolysis of Gly-Pro-pNA)","Km ([1]; Lineweaver-Burke transformation, substrate at different concentrations)","Vmax, Gly-Pro-pNA as substrate ([1]; U = enzyme cleaving 1 mmol Gly-Pro-pNA/min at pH7.6 and 20° C.)","Vmax, Gly-Pro-pNA as substrate [2]"
CC[C@H](C)[C@H](N)C(=O)N1CCC[C@H]1C(=O)N[C@H](C(=O)O)[C@@H](C)CC [Diprotin A],250 µM,–,–,–
"NCC(=O)N1CCC[C@H]1C(=O)Nc1ccc([N+](=O)[O-])cc1 [Gly-Pro-pNA, Gly-Pro-p-nitroanilide] (H-Gly-Pro-pNA)",–,280 µM,0.65 U/nmol serum DPPIV,1.52 U/nmol rsCD26
